Data set [1] has as its target T1, HMG-CoA reductase (Homo sapiens, UniProt P04035).
T1 construct: from tissue; host or cells: liver microsomes
T1 sequence (P04035 1-888): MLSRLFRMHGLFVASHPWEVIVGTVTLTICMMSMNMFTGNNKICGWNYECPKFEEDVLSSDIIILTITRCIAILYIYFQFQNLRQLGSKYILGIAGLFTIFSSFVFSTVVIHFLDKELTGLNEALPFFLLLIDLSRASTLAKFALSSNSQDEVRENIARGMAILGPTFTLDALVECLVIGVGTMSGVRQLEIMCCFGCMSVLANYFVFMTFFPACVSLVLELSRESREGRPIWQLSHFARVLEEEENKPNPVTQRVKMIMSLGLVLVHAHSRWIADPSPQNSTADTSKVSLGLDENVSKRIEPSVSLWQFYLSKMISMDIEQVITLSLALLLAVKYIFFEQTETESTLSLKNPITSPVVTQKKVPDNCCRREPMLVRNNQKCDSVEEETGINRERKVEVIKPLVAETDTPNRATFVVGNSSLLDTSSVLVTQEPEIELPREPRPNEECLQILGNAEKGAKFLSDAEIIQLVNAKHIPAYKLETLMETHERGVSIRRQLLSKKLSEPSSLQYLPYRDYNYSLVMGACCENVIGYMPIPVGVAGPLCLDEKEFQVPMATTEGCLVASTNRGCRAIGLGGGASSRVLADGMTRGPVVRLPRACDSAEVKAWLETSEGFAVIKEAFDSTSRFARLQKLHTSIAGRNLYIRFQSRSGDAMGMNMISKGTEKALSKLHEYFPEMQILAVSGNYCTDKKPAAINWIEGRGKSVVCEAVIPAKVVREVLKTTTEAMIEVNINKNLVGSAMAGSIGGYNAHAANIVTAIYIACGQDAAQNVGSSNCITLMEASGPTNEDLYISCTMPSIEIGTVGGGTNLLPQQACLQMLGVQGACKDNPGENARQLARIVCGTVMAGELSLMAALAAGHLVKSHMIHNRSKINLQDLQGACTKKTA
The data set can be described thus: HMG-CoA reductase assay in isolated liver microsomes. Particulars: 1 μM to 100 μM, isolated liver microsomes. The class given is biochemical. As for the experimental part:
HMG-CoA reductase assays were performed in which increasing concentrations of xanthohumol (1 μM to 100 μM) were added to isolated liver microsomes. Xanthohumol had no effect on HMG-CoA reductase activity. As a positive control, atorvastatin (10 nM and 1 μM) was tested in the same assay, which inhibited reductase activity by 58% and 87% respectively. The protocol followed was as published in Telford et al. ATVB 2002; 22: 1884-1891.

Data set [2] has as its system HepG2 cells. Nature of the data set: Incorporation of 14C-acetic acid into cholesterol in HepG2 cells. The data set is classed as cell-based. Here is the method: The incorporation of ^14C-acetic acid into cholesterol was examined in HepG2 cells. […] The IC50 was approximately 20 μM. In the same HepG2 cell assay system, atorvastatin (10 nM and 1 μM) inhibited acetate incorporation into cholesterol by 20% and 80% respectively.

Data set [3] concerns Caco-2 cell monolayers. Nature of the data set: Permeability across Caco-2 cell monolayers. The data set is classed as in vitro ADME. As for the experimental part: Percent Recovery=100×((Vr×Cr^final)+(Vd×Cd^final))/(Vd×C0)
• dCr/dt is the slope of the cumulative concentration in the receiver compartment versus time in μMs^−1. • Vr is the volume of the receiver compartment in cm^3. • Vd is the volume of the donor compartment in cm^3. • A is the area of the cell-free insert (1.13 cm^2 for 12-well Transwell). • Cr^final is the cumulative receiver concentration in μM at the end of the incubation period. • Cd^final is the concentration of the donor in μM at the end of the incubation period. • C0 is the initial concentration of the dosing solution in μM.
Each determination was performed in duplicate.

Data set [4] has as its target T2, constitutive COX-1 (Ovis aries, UniProt P05979).
T2 sequence (P05979 25-600): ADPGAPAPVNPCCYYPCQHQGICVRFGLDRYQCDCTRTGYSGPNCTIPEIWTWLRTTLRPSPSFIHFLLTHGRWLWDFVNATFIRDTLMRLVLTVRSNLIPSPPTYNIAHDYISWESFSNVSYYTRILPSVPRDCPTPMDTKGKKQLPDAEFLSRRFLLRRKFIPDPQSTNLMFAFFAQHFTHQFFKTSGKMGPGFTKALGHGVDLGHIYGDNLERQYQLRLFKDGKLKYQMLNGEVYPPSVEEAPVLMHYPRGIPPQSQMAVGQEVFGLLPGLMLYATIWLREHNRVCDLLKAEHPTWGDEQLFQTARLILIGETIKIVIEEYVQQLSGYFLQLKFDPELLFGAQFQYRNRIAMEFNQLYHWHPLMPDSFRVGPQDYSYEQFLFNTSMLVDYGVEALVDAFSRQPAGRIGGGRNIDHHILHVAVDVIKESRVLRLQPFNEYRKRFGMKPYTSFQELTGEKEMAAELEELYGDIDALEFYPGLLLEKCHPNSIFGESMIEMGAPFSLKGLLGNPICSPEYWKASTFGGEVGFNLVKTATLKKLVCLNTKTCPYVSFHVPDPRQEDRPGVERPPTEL
As to conditions: read-out: IC50, inhibition of COX-1; cited from earlier work.

Data set [5] deals with T3, inducible COX-2 (Homo sapiens, UniProt P35354).
T3 sequence (P35354 18-604): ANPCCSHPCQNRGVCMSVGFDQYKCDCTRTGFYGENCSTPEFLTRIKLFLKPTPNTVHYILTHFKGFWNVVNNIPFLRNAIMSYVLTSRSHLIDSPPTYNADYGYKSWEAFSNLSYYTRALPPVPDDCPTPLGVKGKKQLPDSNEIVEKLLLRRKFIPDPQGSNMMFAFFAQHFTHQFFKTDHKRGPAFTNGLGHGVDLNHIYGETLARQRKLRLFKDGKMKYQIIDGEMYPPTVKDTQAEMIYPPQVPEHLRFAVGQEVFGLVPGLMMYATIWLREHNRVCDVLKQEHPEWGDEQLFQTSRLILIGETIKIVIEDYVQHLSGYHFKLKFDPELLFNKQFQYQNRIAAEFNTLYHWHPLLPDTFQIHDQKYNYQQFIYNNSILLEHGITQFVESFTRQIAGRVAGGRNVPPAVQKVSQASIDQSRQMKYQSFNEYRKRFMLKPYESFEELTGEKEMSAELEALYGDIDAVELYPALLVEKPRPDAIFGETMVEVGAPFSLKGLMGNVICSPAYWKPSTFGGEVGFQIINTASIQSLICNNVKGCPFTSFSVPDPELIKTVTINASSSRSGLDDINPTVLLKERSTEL
Particulars: read-out: IC50, inhibition of COX-2; cited from earlier work.

The conditions of data set [6]: cited from earlier work.
The conditions of data set [7]: oral doses, animal; cited from earlier work.
Where [8] appears, read: human, Caco-2, 120 min, 2 μM, pH 7.4.

As to `COc1cc(O)c(CC=C(C)C)c(O)c1C(=O)/C=C/c1ccc(O)cc1` [Xanthohumol, xanthohumol], in data set [1], the “Effect on HMG-CoA reductase activity” value was “no effect”. In data set [2] (0.5 μM to 100 μM), the Cholesterol synthesis inhibition result is on record as “inhibited in a dose-responsive manner”. Further, the IC50 was approximately 20 µM in data set [2] (Homo sapiens, read-out: IC50, cholesterol synthesis); 17 µM in data set [4]; 42 µM in data set [5]. Also, the “Effect on incorporation of 14C-acetic acid into cholesterol” value in data set [2] (concentrations below 500 nM) is listed as “No affect”. Besides, the “Significant Efflux” value in data set [3] (Caco-2) is on record as “No”. In data set [3] (setting [8]), the “Papp, Average” value was 1.77 10^−6 cm/s. Moreover, in data set [3] (setting [8]), the “Papp, Rep. 1” value was 0.94 10^−6 cm/s. In addition, the Solubility in water result in data set [6] was “virtually insoluble”. In addition, the Bioavailability result in data set [7] is reported as “very low bioavailability”.

These data come from patent publication US20120059052A1, “PRENYLFLAVONOID FORMULATIONS” (BIOACTIVES, INC., priority 2005, published 2012).
